Laboratory results as given in patent US20130203709A1, “ACYLSULFONAMIDES AND PROCESSES FOR PRODUCING THE SAME” (priority 2010, published 2013).

Molecular target: Mcl-1 (Homo sapiens, UniProt Q07820)
Assay: fluorescence polarization (FP) assay, disruption of the Mcl-1/BH3 interaction
Format: binding
Conditions: reactive fragments (SZ, TA); 100 μM per FIG. 22 legend; FP assay; read-out: % Inhibition Mcl-1

Sequence of Mcl-1 (Q07820 whole entry): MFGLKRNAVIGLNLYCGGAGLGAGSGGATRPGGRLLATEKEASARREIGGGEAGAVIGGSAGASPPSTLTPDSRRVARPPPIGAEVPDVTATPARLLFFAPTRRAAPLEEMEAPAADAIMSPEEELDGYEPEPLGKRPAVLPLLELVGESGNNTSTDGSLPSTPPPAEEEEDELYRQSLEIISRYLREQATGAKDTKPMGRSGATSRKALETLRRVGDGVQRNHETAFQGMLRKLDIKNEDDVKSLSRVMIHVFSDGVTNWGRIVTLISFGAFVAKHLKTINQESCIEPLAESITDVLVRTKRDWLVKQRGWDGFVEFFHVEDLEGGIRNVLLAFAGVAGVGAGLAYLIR

inhibition at 100 µM	Structure (SMILES)
1.4 ± 3.6%	Cc1nc(-c2ccccc2)sc1C(=O)O [TA3]
1.5 ± 0.7%	COc1cc2c(cc1OC)C(c1ccccc1)N(CC(=O)O)CC2 (stereo not drawn) [TA4]
1.3 ± 13.4%	COc1cc(OC)cc(C(=O)O)c1 [TA5]
< 1%	O=C(O)c1cccc([N+](=O)[O-])c1 [TA6]
2.4 ± 6.8%	O=C(O)c1cccc2ccccc12 [TA7]
3.6 ± 12.7%	O=C(O)c1ccc(OC(F)(F)F)cc1 [TA8]
< 1%	O=C(O)c1ccco1 [TA9]
< 1%	O=C(O)c1ccno1 [TA10]

Same assay, conditions: read-out: % Inhibition Mcl-1

Structure (SMILES)	inhibition at 100 µM
[N-]=[N+]=NS(=O)(=O)c1ccc(NCCSc2ccccc2)c([N+](=O)[O-])c1 [SZ4]	23.4 ± 14.9%
[N-]=[N+]=NS(=O)(=O)c1ccc(CN(CCSc2ccccc2)Cc2ccc(S(=O)(=O)N=[N+]=[N-])cc2)cc1 [SZ9]	13 ± 1.4%
[N-]=[N+]=NS(=O)(=O)c1ccc(NCc2ccc(Br)cc2)cc1 [SZ29]	5.7 ± 4.6%

Molecular target: Bcl-XL (Homo sapiens, UniProt Q07817)
Sequence (Q07817 whole entry): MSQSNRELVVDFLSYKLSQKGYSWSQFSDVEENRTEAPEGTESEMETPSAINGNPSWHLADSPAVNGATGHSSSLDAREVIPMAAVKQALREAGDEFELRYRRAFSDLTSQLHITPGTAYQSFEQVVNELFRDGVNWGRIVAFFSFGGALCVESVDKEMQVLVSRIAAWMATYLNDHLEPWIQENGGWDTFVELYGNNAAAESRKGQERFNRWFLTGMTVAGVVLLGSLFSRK
Assay: fluorescence polarization (FP) assay, disruption of the Bcl-XL/BH3 interaction
Format: binding
Conditions: not given

Structure (SMILES)	IC50 against Bcl-XL (in words)
CC1(C)CCN(c2ccc(C(=O)NS(=O)(=O)c3ccc(NCCSc4ccccc4)c([N+](=O)[O-])c3)cc2)CC1 [SZ4TA2]	in the nM range

Same assay, conditions: 50 μM acylsulfonamide; disruption of Bcl-XL/BH3 interaction in FP assay; read-out: Percentage Inhibition at 50 μM acylsulfonamide concentrations

inhibition at 50 µM	Structure (SMILES)
6%	Cc1nc(-c2ccccc2)sc1C(=O)NS(=O)(=O)c1ccc(CN2CCN(c3ccccc3)CC2)cc1 [SZ1TA3]
9%	CN(CCc1ccccc1)Cc1ccc(S(=O)(=O)NC(=O)c2ccc(N3CCC(C)(C)CC3)cc2)cc1 [SZ2TA2]
7%	Cc1nc(-c2ccccc2)sc1C(=O)NS(=O)(=O)c1ccc(CN(C)CCc2ccccc2)cc1 [SZ2TA3]
25%	COc1cc2c(cc1OC)C(c1ccccc1)N(CC(=O)NS(=O)(=O)c1ccc(CN(C)CCc3ccccc3)cc1)CC2 (stereo not drawn) [SZ2TA4]
0%	CC(=O)Nc1ccc(S(=O)(=O)NC(=O)c2ccccc2)cc1 [SZ3TA1]
0%	CC(=O)Nc1ccc(S(=O)(=O)NC(=O)c2cccc([N+](=O)[O-])c2)cc1 [SZ3TA6]
0%	CC(=O)Nc1ccc(S(=O)(=O)NC(=O)c2cccc3ccccc23)cc1 [SZ3TA7]
0%	CC(=O)Nc1ccc(S(=O)(=O)NC(=O)c2ccc(OC(F)(F)F)cc2)cc1 [SZ3TA8]
0%	CC(=O)Nc1ccc(S(=O)(=O)NC(=O)c2ccco2)cc1 [SZ3TA9]
28%	Cc1ccc(S(=O)(=O)NC(=O)c2ccc(N3CCC(C)(C)CC3)cc2)cc1 [SZ5TA2]
76%	CC1(C)CCN(c2ccc(C(=O)NS(=O)(=O)c3ccc4ccc(S(=O)(=O)NCCSc5ccccc5)cc4c3)cc2)CC1 [SZ7TA2]
38%	CC1(C)CCN(c2ccc(C(=O)NS(=O)(=O)c3ccc(CN(CCSc4ccccc4)Cc4ccc(S(=O)(=O)N=[N+]=[N-])cc4)cc3)cc2)CC1 [SZ9TA2]
22%	Cc1nc(-c2ccccc2)sc1C(=O)NS(=O)(=O)c1ccc(CN(CCSc2ccccc2)Cc2ccc(S(=O)(=O)N=[N+]=[N-])cc2)cc1 [SZ9TA3]
60%	COc1cc(OC)cc(C(=O)NS(=O)(=O)c2ccc(CN(CCSc3ccccc3)Cc3ccc(S(=O)(=O)N=[N+]=[N-])cc3)cc2)c1 [SZ9TA5]

Structure (SMILES)	inhibition at 50 µM
CN(CCc1ccccc1)Cc1ccc(S(=O)(=O)NC(=O)c2ccccc2)cc1 [SZ2TA1]	2%
O=C(NS(=O)(=O)c1ccc(NCCSc2ccccc2)c([N+](=O)[O-])c1)c1ccccc1 [SZ4TA1]	14%
CC1(C)CCN(c2ccc(C(=O)NS(=O)(=O)c3ccc(NCCSc4ccccc4)c([N+](=O)[O-])c3)cc2)CC1 [SZ4TA2]	100%
Cc1ccc(S(=O)(=O)NC(=O)c2ccccc2)cc1 [SZ5TA1]	29%
[N-]=[N+]=NS(=O)(=O)c1ccc(CN(CCSc2ccccc2)Cc2ccc(S(=O)(=O)NC(=O)c3ccccc3)cc2)cc1 [SZ9TA1]	80%

Same assay, conditions: reactive fragments (SZ, TA); 100 μM per FIG. 22 legend; FP assay; read-out: % Inhibition Bcl-XL

inhibition at 100 µM	Structure (SMILES)
< 1%	Cc1nc(-c2ccccc2)sc1C(=O)O [TA3]
< 1%	COc1cc2c(cc1OC)C(c1ccccc1)N(CC(=O)O)CC2 (stereo not drawn) [TA4]
< 1%	COc1cc(OC)cc(C(=O)O)c1 [TA5]
< 1%	O=C(O)c1cccc([N+](=O)[O-])c1 [TA6]
< 1%	O=C(O)c1cccc2ccccc12 [TA7]
4 ± 1.2%	O=C(O)c1ccc(OC(F)(F)F)cc1 [TA8]
< 1%	O=C(O)c1ccco1 [TA9]
2 ± 1.7%	O=C(O)c1ccno1 [TA10]

Same assay, conditions: read-out: % Inhibition Bcl-XL

Structure (SMILES)	inhibition at 100 µM
[N-]=[N+]=NS(=O)(=O)c1ccc(NCCSc2ccccc2)c([N+](=O)[O-])c1 [SZ4]	< 1%
[N-]=[N+]=NS(=O)(=O)c1ccc(CN(CCSc2ccccc2)Cc2ccc(S(=O)(=O)N=[N+]=[N-])cc2)cc1 [SZ9]	4.7 ± 4%
[N-]=[N+]=NS(=O)(=O)c1ccc(NCc2ccc(Br)cc2)cc1 [SZ29]	< 1%
